Results published in patent US20210115104A1, “AMYLIN ANALOGUES” (Zealand Pharma A/S, priority 2015, published 2021).
pEC50: −log10 of the molar value. *1 amine or outer side, *2 acyl side, *3 side chain or, on linkers, in order; H or OH if unused. Where a SMILES comes first, the peptide text is derived from it. Bridges are numbered along the chain shown (N, C = ends). [ ]: non-standard residue; d: D form. The star is where a group is joined. C20 diacid = O=C(O)CCCCCCCCCCCCCCCCCCC(=O)*; γGlu = O=C(O)[C@H](CCC(=O)[*:2])N[*:1]; Hyp = O=C(O)[C@@H]1C[C@@H](O)CN1; NMeI = CC[C@H](C)[C@H](NC)C(=O)O; Aad = N[C@@H](CCCC(=O)O)C(=O)O; Sar = CNCC(=O)O

What was measured:
[1] = Assessment of physical stability (Thioflavin T fibrillation); type: physicochemical; design: key: FND = fibrillation not detected; FD = fibrillation detected; details: 1 mg/ml, 40° C., ThT
How it was run: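 Fibrillation lag-time, in hours, taken where regressions of the initial stable phase and the growth phase intersect. ThT (40 μM) fluorescence monitored at 40 °C for 96 h, 10-min reads each preceded by 300 s mixing. Peptide at 1 mg/ml in 50 mM buffers: phosphate or histidine pH 7.0, acetate pH 4.0.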

[2] = molecular target: T1, human calcitonin receptor (hCTR2) (Homo sapiens, UniProt P30988); assay: hCTR2 cAMP assay (AlphaScreen) in COS7 cells; type: cell-based; details: cAMP induction, COS7 cells expressing hCTR2; Table 1; read-out: hCTR2 EC50
T1 construct: expressed in transfected cells
T1 sequence (P30988 25-474): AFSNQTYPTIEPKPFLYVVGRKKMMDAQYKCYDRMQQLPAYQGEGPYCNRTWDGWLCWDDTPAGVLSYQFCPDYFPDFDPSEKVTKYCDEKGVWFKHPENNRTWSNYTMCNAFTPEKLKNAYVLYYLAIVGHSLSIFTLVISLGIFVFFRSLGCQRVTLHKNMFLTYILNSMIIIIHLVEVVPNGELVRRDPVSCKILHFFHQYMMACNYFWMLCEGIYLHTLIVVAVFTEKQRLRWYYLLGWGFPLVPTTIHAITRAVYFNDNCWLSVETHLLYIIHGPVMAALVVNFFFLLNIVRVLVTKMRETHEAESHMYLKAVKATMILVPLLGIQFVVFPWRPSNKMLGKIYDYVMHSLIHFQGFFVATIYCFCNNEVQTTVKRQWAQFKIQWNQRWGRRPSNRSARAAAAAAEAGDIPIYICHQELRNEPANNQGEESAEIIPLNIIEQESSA
Source text: The cell line COS7, originating from African Green Monkey kidney fibroblast cells, was used for establishment of the stable cell lines described below. The COS7 cellular background was used due to it being RAMP naïve, and as such it provides the best available system for testing of the monomeric hCTR and different heterodimeric amylin receptor subtypes functionally generated by introduction of the individual RAMPs.
A cell line expressing the human calcitonin receptor (hCTR2) was generated in the COS7 cellular background as stable clones. In brief, hCTR2 (GI: 4502547) was amplified by PCR using primers encoding terminal restriction sites for subcloning. The 5′-end primers additionally encoded a near Kozak consensus sequence to ensure efficient translation. The fidelity of the DNA encoding the receptor was confirmed by DNA sequencing. The PCR products encoding the receptor were subcloned into a mammalian expression vector containing a neomycin (G418) resistance marker. The mammalian expression vector encoding the receptor was transfected into COS7 cells by a standard liposome transfection method. 48 hours post-transfection, cells were seeded for limited dilution cloning and selected with 1 mg/ml G418 in the culture medium. After 3 weeks, surviving colonies of hCTR2-expressing cells were picked, propagated and tested in the amylin efficacy assay as described in Example 3 below. One hCTR2-expressing clone was chosen for compound profiling.
In vitro activity of test peptides at the hCTR2 and hAMYR3 receptors was assessed by measuring the induction of cAMP following stimulation of the receptor using the AlphaScreen® cAMP Assay kit from Perkin-Elmer.
Briefly, COS7 cells expressing hCTR2 (see Example 2, above) were seeded at 30-40,000 cells per well in 96-well microtiter plates coated with 0.01% poly-L-lysine, and grown for 1 day in culture in 100 μl growth medium [DMEM, 10% FCS, Penicillin (100 IU/ml), Streptomycin (100 μg/ml)]. On the day of analysis, growth medium was removed and the cells were washed once with 200 μl Tyrode buffer [Tyrode's Salts (9.6 g/I), 10 mM HEPES, pH 7.4]. Cells were incubated in 100 μl Tyrode buffer containing increasing concentrations of test peptides, 100 µM IBMX and 0.1% casein for 15 min at 37° C. The reaction was stopped by carefully decanting off the compound/buffer medium and replacing it with lysis/detection buffer (80 μl 0.1% w/v BSA, 5 mM HEPES, 0.3% v/v Tween-20 in deionized water). After incubation at room temperature for 10 min., the cAMP content of the resulting cell lysate was estimated according to the AlphaScreen® cAMP Assay manufacturer's instructions. EC50 values were estimated by computer-aided curve fitting using the 4-parameter logistic (4PL) non-linear model.

Fibrillation pH 4.0 (Ac) ([1]; 50 mM acetate buffer pH 4.0, 96 hours) | Fibrillation pH 7.0 (His) ([1]; 50 mM histidine buffer pH 7.0, 96 hours) | Fibrillation pH 7.0 (Phos.) ([1]; 50 mM phosphate buffer pH 7.0, 96 hours) | pEC50 [2] | SMILES
FND | FD | FD | 9.92 | CC[C@H](C)[C@@H](C(=O)N[C@@H](CC(C)C)C(=O)N[C@@H](CO)C(=O)N[C@@H](CO)C(=O)N[C@H](C(=O)N[C@@H](CCC(=O)O)C(=O)N[C@H](C(=O)NCC(=O)N[C@@H](CO)C(=O)N[C@@H](CC(N)=O)C(=O)N[C@H](C(=O)N1C[C@H](O)C[C@H]1C(N)=O)[C@@H](C)O)C(C)C)[C@@H](C)O)N(C)C(=O)[C@H](C)NC(=O)CN(C)C(=O)[C@H](Cc1ccccc1)NC(=O)[C@H](CO)NC(=O)[C@H](CO)NC(=O)[C@H](CCCNC(=N)N)NC(=O)[C@@H](NC(=O)[C@H](CC(C)C)NC(=O)[C@H](Cc1ccccc1)NC(=O)[C@H](Cc1c[nH]cn1)NC(=O)[C@H](C)NC(=O)[C@H](CC(C)C)NC(=O)[C@H](CCCNC(=N)N)NC(=O)[C@H](CCC(=O)O)NC(=O)[C@@H](NC(=O)[C@H](C)NC(=O)[C@@H]1CSSC[C@H](NC(=O)[C@H](CCCNC(=N)N)NC(=O)CC[C@H](NC(=O)CCCCCCCCCCCCCCCCCCC(=O)O)C(=O)O)C(=O)NCC(=O)N[C@@H]([C@@H](C)O)C(=O)N[C@@H](C)C(=O)N[C@@H]([C@@H](C)O)C(=O)N1)[C@@H](C)O)[C@@H](C)O [Compound 18, [19CD]-isoGlu-R-C( )-GTAT-C( )-ATERLAHFLTRSSF-Gly(Me)-A-Ile(Me)-LSSTEVGSNT-Hyp-NH2] ({C20 diacid-γGlu}-RCGTATCATERLAHFLTRSSF[Sar]A[NMeI]LSSTEVGSNT[Hyp]-NH2; disulfide 2-7)
 |  |  | 9.82 | CC[C@H](C)[C@@H](C(=O)N[C@@H](CC(C)C)C(=O)N[C@@H](CO)C(=O)N[C@@H](CO)C(=O)N[C@H](C(=O)N[C@@H](CCC(=O)O)C(=O)N[C@H](C(=O)NCC(=O)N[C@@H](CO)C(=O)N[C@@H](CO)C(=O)N[C@H](C(=O)N1CCC[C@H]1C(N)=O)[C@@H](C)O)C(C)C)[C@@H](C)O)N(C)C(=O)[C@H](C)NC(=O)CN(C)C(=O)[C@H](Cc1ccccc1)NC(=O)[C@H](CO)NC(=O)[C@H](CO)NC(=O)[C@H](CCCNC(=N)N)NC(=O)[C@H](CCC(=O)O)NC(=O)[C@H](CC(C)C)NC(=O)[C@H](Cc1ccccc1)NC(=O)[C@H](Cc1c[nH]cn1)NC(=O)[C@H](C)NC(=O)[C@H](CC(C)C)NC(=O)[C@H](CCCNC(=N)N)NC(=O)[C@H](CCC(N)=O)NC(=O)[C@@H](NC(=O)[C@H](C)NC(=O)[C@@H]1CSSC[C@H](NC(=O)[C@H](CCCNC(=N)N)NC(=O)CC[C@H](NC(=O)CCCCCCCCCCCCCCCCCCC(=O)O)C(=O)O)C(=O)N[C@@H](CC(N)=O)C(=O)N[C@@H]([C@@H](C)O)C(=O)N[C@@H](C)C(=O)N[C@@H]([C@@H](C)O)C(=O)N1)[C@@H](C)O [Compound 84, [19CD]-isoGlu-R-C( )-NTAT-C( )-ATQRLAHFLERSSF-Gly(Me)-A-Ile(Me)-LSSTEVGSSTP-NH2] ({C20 diacid-γGlu}-RCNTATCATQRLAHFLERSSF[Sar]A[NMeI]LSSTEVGSSTP-NH2; disulfide 2-7)
 |  |  | 9.36 | CC[C@H](C)[C@@H](C(=O)N[C@@H](CC(C)C)C(=O)N[C@@H](CO)C(=O)N[C@@H](CO)C(=O)N[C@H](C(=O)N[C@@H](CCC(=O)O)C(=O)N[C@H](C(=O)NCC(=O)N[C@@H](CO)C(=O)N[C@@H](CCCC(=O)O)C(=O)N[C@H](C(=O)N1C[C@H](O)C[C@H]1C(N)=O)[C@@H](C)O)C(C)C)[C@@H](C)O)N(C)C(=O)[C@H](C)NC(=O)CN(C)C(=O)[C@H](Cc1ccccc1)NC(=O)[C@H](CO)NC(=O)[C@H](CO)NC(=O)[C@H](CCCNC(=N)N)NC(=O)[C@H](CCC(N)=O)NC(=O)[C@H](CC(C)C)NC(=O)[C@H](Cc1ccccc1)NC(=O)[C@H](Cc1c[nH]cn1)NC(=O)[C@H](C)NC(=O)[C@H](CC(C)C)NC(=O)[C@H](CCCNC(=N)N)NC(=O)[C@H](CCC(=O)O)NC(=O)[C@@H](NC(=O)[C@H](C)NC(=O)[C@@H]1CSSC[C@H](NC(=O)[C@H](CCCNC(=N)N)NC(=O)CC[C@H](NC(=O)CCCCCCCCCCCCCCCCCCC(=O)O)C(=O)O)C(=O)N2CCC[C@H]2C(=O)N[C@@H]([C@@H](C)O)C(=O)N[C@@H](C)C(=O)N[C@@H]([C@@H](C)O)C(=O)N1)[C@@H](C)O [Compound 76, [19CD]-isoGlu-R-C( )-PTAT-C( )-ATERLAHFLQRSSF-Gly(Me)-A-Ile(Me)-LSSTEVGS-Aad-T-Hyp-NH2] ({C20 diacid-γGlu}-RCPTATCATERLAHFLQRSSF[Sar]A[NMeI]LSSTEVGS[Aad]T[Hyp]-NH2; disulfide 2-7)
 |  |  | 9.46 | CC[C@H](C)[C@@H](C(=O)N[C@@H](CC(C)C)C(=O)N[C@@H](CO)C(=O)N[C@@H](CO)C(=O)N[C@H](C(=O)N[C@@H](CCC(=O)O)C(=O)N[C@H](C(=O)NCC(=O)N[C@@H](CO)C(=O)N[C@@H](CC(N)=O)C(=O)N[C@H](C(=O)N1C[C@H](O)C[C@H]1C(N)=O)[C@@H](C)O)C(C)C)[C@@H](C)O)N(C)C(=O)[C@H](C)NC(=O)CN(C)C(=O)[C@H](Cc1ccccc1)NC(=O)[C@H](CO)NC(=O)[C@H](CO)NC(=O)[C@H](CCCNC(=N)N)NC(=O)[C@H](CCC(N)=O)NC(=O)[C@H](CC(C)C)NC(=O)[C@H](Cc1ccccc1)NC(=O)[C@H](Cc1c[nH]cn1)NC(=O)[C@H](C)NC(=O)[C@H](CC(C)C)NC(=O)[C@H](CCCNC(=N)N)NC(=O)[C@H](CCC(=O)O)NC(=O)[C@@H](NC(=O)[C@H](C)NC(=O)[C@@H]1CSSC[C@H](NC(=O)[C@H](CCCNC(=N)N)NC(=O)CC[C@H](NC(=O)CCCCCCCCCCCCCCCCCCC(=O)O)C(=O)O)C(=O)N2CCC[C@H]2C(=O)N[C@@H]([C@@H](C)O)C(=O)N[C@@H](C)C(=O)N[C@@H]([C@@H](C)O)C(=O)N1)[C@@H](C)O [Compound 63, [19CD]-isoGlu-R-C( )-PTAT-C( )-ATERLAHFLQRSSF-Gly(Me)-A-Ile(Me)-LSSTEVGSNT-Hyp-NH2] ({C20 diacid-γGlu}-RCPTATCATERLAHFLQRSSF[Sar]A[NMeI]LSSTEVGSNT[Hyp]-NH2; disulfide 2-7)
